# PMC11785675, “Phase Ib study of the oral PI3Kδ inhibitor linperlisib in patients with advanced solid tumors” (International Journal of Clinical Oncology, 2024)
# System: patients with advanced solid tumors
# Details: 80 mg/day oral
# 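Note: phase Ib open-label single-arm trial, once-daily dosing in 28-day cycles, adverse events graded by NCI CTCAE v5.0, recorded until at least 30 days post last dose, incidence as patient counts and percentages.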
# Protocol: This phase Ib, single-arm, open-label, multi-center clinical trial recruited patients with advanced or metastatic solid tumors from eight sites in China.
# The main exclusion criteria included prior use of PI3K targeted agents and clinically symptomatic central nervous system metastasis or meningeal metastasis.
# Patients received oral linperlisib 80 mg once per day, taken with warm water either 1 h prior to or 2 h after a meal every day, in a 28-day cycle. Dose adjustments, including holds and reductions, were mandated for grade 3/4 hematologic and grade 3 non-hematologic toxicity. Treatment with linperlisib continued until disease progression, intolerable toxicity, withdrawal of informed consent, death or any other conditions deemed by the investigator to warrant drug discontinuation.
# Physical examination, assessment of ECOG performance status, clinical laboratory evaluations, electrocardiogram, and other safety evaluations were conducted to assess safety. AEs were graded according to the National Cancer Institute Common Terminology Criteria for Adverse Events (CTCAE), Version 5.0. All AEs were recorded from the time of signing the informed consent to at least 30 days after the last dose, and were followed until resolution or stabilization. Patients underwent radiographic assessments every 8 weeks by enhanced computed tomography or magnetic resonance imaging according to RECIST 1.1.
# The primary endpoint was safety as assessed by monitoring the frequency, duration, and severity of AEs. Secondary endpoints were efficacy endpoints, including ORR, DCR, and progression-free survival (PFS).
# Baseline data are presented descriptively. ORR is determined by the proportion of patients who achieve a confirmed complete response (CR) or partial response (PR) as the best overall response, and is presented with CIs. PFS and overall survival (OS) curves are generated using the Kaplan–Meier method. The incidence of AEs and serious AEs (SAEs) are reported as numbers and percentages.
smiles,measurement,setting,value
COc1ncc(-c2nc(N3CCOCC3)nc3c(CN4CCC(C(C)(C)O)CC4)cc(F)cc23)cc1NS(C)(=O)=O [linperlisib],Grade ≥ 3 TEAE anemia,94 patients,3.2%
same,Grade ≥ 3 TEAE diarrhea,94 patients,4.3%
same,Grade ≥ 3 TEAE increased ALT,94 patients,3.2%
same,Grade ≥ 3 TEAE increased AST,94 patients,3.2%
same,Grade ≥ 3 TEAE increased blood alkaline phosphatase,94 patients,3.2%
same,Grade ≥ 3 TEAE neutropenia,94 patients,3.2%
same,Patients who suspended linperlisib due to TRAEs,94 patients,19.1%
same,"Patients who terminated linperlisib due to vomiting, esophagitis, gastritis, or drug eruption",94 patients,2.1%
same,Patients who withdrew from the trial because of TRAEs,94 patients,5.3%
same,Patients with SAEs related to linperlisib,94 patients,10.6%
same,Patients with TEAEs of grade 3 or greater,94 patients,45.7%
same,Patients with TRAEs of grade 3 or greater,94 patients,28.7%
same,Patients with at least one TEAE,94 patients,97.9%
same,Patients with at least one treatment-related AE (TRAE),94 patients,89.4%
same,Patients with dose reduction (elevated γ-glutamyltransferase and diarrhea),94 patients,2.1%
same,"TEAE abdominal pain, all grades",94 patients,11 (11.7) n (%)
same,"TEAE abdominal pain, grade ≥ 3",94 patients,1 (1.1) n (%)
same,"TEAE anemia, all grades",94 patients,20 (21.3) n (%)
same,"TEAE anemia, all grades irrespective of causality",94 patients,21.3%
same,"TEAE anemia, grade ≥ 3",94 patients,3 (3.2) n (%)
same,"TEAE asthenia, all grades",94 patients,15 (16.0) n (%)
same,"TEAE asthenia, grade ≥ 3",94 patients,0 n (%)
same,"TEAE decreased appetite, all grades",94 patients,24 (25.5) n (%)
same,"TEAE decreased appetite, all grades irrespective of causality",94 patients,25.5%
same,"TEAE decreased appetite, grade ≥ 3",94 patients,1 (1.1) n (%)
same,"TEAE diarrhea, all grades",94 patients,11 (11.7) n (%)
same,"TEAE diarrhea, grade ≥ 3",94 patients,4 (4.3) n (%)
same,"TEAE elevated γ-glutamyltransferase, all grades",94 patients,18 (19.1) n (%)
same,"TEAE elevated γ-glutamyltransferase, grade ≥ 3",94 patients,2 (2.1) n (%)
same,"TEAE hypercholesterolemia, all grades",94 patients,12 (12.8) n (%)
same,"TEAE hypercholesterolemia, grade ≥ 3",94 patients,1 (1.1) n (%)
same,"TEAE hypertriglyceridemia, all grades",94 patients,10 (10.6) n (%)
same,"TEAE hypertriglyceridemia, grade ≥ 3",94 patients,0 n (%)
same,"TEAE hypoalbuminemia, all grades",94 patients,15 (16.0) n (%)
same,"TEAE hypoalbuminemia, grade ≥ 3",94 patients,0 n (%)
same,"TEAE hyponatremia, all grades",94 patients,15 (16.0) n (%)
same,"TEAE hyponatremia, grade ≥ 3",94 patients,1 (1.1) n (%)
same,"TEAE increased ALT, all grades",94 patients,21 (22.3) n (%)
same,"TEAE increased ALT, all grades irrespective of causality",94 patients,22.3%
same,"TEAE increased ALT, grade ≥ 3",94 patients,3 (3.2) n (%)
same,"TEAE increased AST, all grades",94 patients,25 (26.6) n (%)
same,"TEAE increased AST, all grades irrespective of causality",94 patients,26.6%
same,"TEAE increased AST, grade ≥ 3",94 patients,3 (3.2) n (%)
same,"TEAE increased blood alkaline phosphatase, all grades",94 patients,15 (16.0) n (%)
same,"TEAE increased blood alkaline phosphatase, grade ≥ 3",94 patients,3 (3.2) n (%)
same,"TEAE increased blood bilirubin, all grades",94 patients,16 (17.0) n (%)
same,"TEAE increased blood bilirubin, grade ≥ 3",94 patients,1 (1.1) n (%)
same,"TEAE increased blood creatinine, all grades",94 patients,18 (19.1) n (%)
same,"TEAE increased blood creatinine, grade ≥ 3",94 patients,2 (2.1) n (%)
same,"TEAE increased blood lactate dehydrogenase, all grades",94 patients,13 (13.8) n (%)
same,"TEAE increased blood lactate dehydrogenase, grade ≥ 3",94 patients,0 n (%)
same,"TEAE leukopenia, all grades",94 patients,16 (17.0) n (%)
same,"TEAE leukopenia, grade ≥ 3",94 patients,1 (1.1) n (%)
same,"TEAE nausea, all grades",94 patients,16 (17.0) n (%)
same,"TEAE nausea, grade ≥ 3",94 patients,0 n (%)
same,"TEAE neutropenia, all grades",94 patients,13 (13.8) n (%)
same,"TEAE neutropenia, grade ≥ 3",94 patients,3 (3.2) n (%)
same,"TEAE protein urine present, all grades",94 patients,10 (10.6) n (%)
same,"TEAE protein urine present, grade ≥ 3",94 patients,0 n (%)
same,"TEAE proteinuria, all grades",94 patients,25 (26.6) n (%)
same,"TEAE proteinuria, all grades irrespective of causality",94 patients,26.6%
same,"TEAE proteinuria, grade ≥ 3",94 patients,0 n (%)
same,"TEAE pyrexia, all grades",94 patients,10 (10.6) n (%)
same,"TEAE pyrexia, grade ≥ 3",94 patients,0 n (%)
same,"TEAE rash, all grades",94 patients,14 (14.9) n (%)
same,"TEAE rash, grade ≥ 3",94 patients,2 (2.1) n (%)
same,"TEAE vomiting, all grades",94 patients,15 (16.0) n (%)
same,"TEAE vomiting, grade ≥ 3",94 patients,2 (2.1) n (%)
same,"TEAE weight loss, all grades",94 patients,20 (21.3) n (%)
same,"TEAE weight loss, all grades irrespective of causality",94 patients,21.3%
same,"TEAE weight loss, grade ≥ 3",94 patients,0 n (%)
same,TRAE decreased appetite,94 patients,18.1%
same,TRAE elevated γ-glutamyltransferase,94 patients,16.0%
same,TRAE increased ALT,94 patients,18.1%
same,TRAE increased AST,94 patients,22.3%
same,TRAE proteinuria,94 patients,21.3%
same,TRAEs leading to death,94 patients,No TRAEs leading to death were reported
same,Patients with SAEs of grade 3 or greater,"94 patients, 29 SAEs",27.7%
same,Patients who discontinued treatment due to AEs,"94 patients, data cutoff April 03, 2023",21.3%
same,Patients with SAEs,"94 patients, thirty-five SAEs",30.9%
same,Incidence of hyperglycemia related to linperlisib,all grades,2.1%
same,"Incidence of diarrhea, colitis, and hepatotoxicity",compared with other PI3K inhibitors,very low
